In the METLIN SMRT retention time set (Domingo-Almenara et al. 2019):

experiment: gradient 5% acetonitrile 3 min, to 50% in 2 min, to 85% in 15 min, held 3 min, 100 µL/min; details: column: Zorbax Extend-C18 2.1 x 50 mm; eluents: water / acetonitrile, 0.1% formic acid
Method in brief: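 Retention times come from adduct peaks that were picked computationally and then checked by hand. The standards, pure and pooled in mixtures of ~100 molecules, were run on a Zorbax Extend-C18 column (2.1 × 50 mm, 1.8 μm) at 100 μL/min with water and acetonitrile, each with 0.1% formic acid. Detection was by quadrupole time-of-flight mass spectrometry in positive and negative ionization mode, with a dead volume of 40 μL and a dwell volume of 900 μL.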

Row | SMILES | RP-LC retention time
1 | CC1CCC(NC(=O)CN2C(=O)CCCc3cc(S(=O)(=O)N4CCCCC4)ccc32)CC1 (configuration not stated) | 945 s
2 | Cc1csc(NC(=O)CSc2ccc(-c3cccs3)nn2)n1 | 750 s
3 | O=C(NCc1nn(Cc2ccccc2)c2ccccc12)c1cnccn1 | 858 s
4 | Cc1ccc(NC(=O)N2CCC(c3nc(C(=O)N(C)C)c(C)o3)CC2)cc1C | 726 s
5 | CCOC(=O)c1nc(N2CCN(c3ccccn3)CC2)c2ccccc2n1 | 580 s
6 | CC(Oc1ccccc1)c1nc(-c2ccc3nnn(C)c3c2)no1 (configuration not stated) | 1060 s
7 | O=C(Cn1cnc2nc3c(cc2c1=O)CCCC3)Nc1cccc2c1CCCC2 | 808 s
8 | CCCNC(=O)C1CCCN(c2ccc(SCC(=O)Nc3c(F)cccc3F)nn2)C1 (configuration not stated) | 628 s
9 | COCCc1noc(C2Cc3ccccc3N2C(=O)Nc2ccc(C)c(C)c2)n1 (configuration not stated) | 1060 s
10 | CCc1nc2cc(N3CCC(C(=O)NC(C)c4ccccc4)CC3)cnc2nc1CC (configuration not stated) | 837 s
11 | O=C(NCc1nc(-c2ccc(N3CCCCC3)cc2)no1)c1cccs1 | 877 s
12 | CN(C)S(=O)(=O)c1ccc(-c2nnc(C(=O)NCc3cccs3)o2)cc1 | 812 s
13 | Cc1ccc(Nc2nc3ccncc3n(C(C)C)c2=O)cc1Cl | 771 s
14 | Cc1ccc(C)c(NC(=O)c2c(C)oc3nc(C)nc(N4CCOCC4)c23)c1 | 803 s
15 | COCC(C)(O)CNC(=O)NC1CCCCC1 (configuration not stated) | 596 s
16 | COc1ccc(N2C(=O)C3N=NN(Cc4nc(-c5ccc(C)cc5)no4)C3C2=O)cc1OC (configuration not stated) | 915 s
17 | CCOc1ccccc1N1CCN(C(=O)Cn2ccc3c(c(C)nn3-c3ccccc3)c2=O)CC1 | 844 s
18 | Fc1ccc(F)c(Cn2cccc2-c2nc(-c3ccncc3)no2)c1 | 1130 s
19 | COC(=O)c1ncn2c1C(=O)N(c1cc(C)ccc1C)C(C)(C(=O)NCc1ccccc1)C2 (configuration not stated) | 731 s
20 | Brc1ccc(-c2noc(Cc3nc(-c4ccc5c(c4)OCO5)cs3)n2)cc1 | 1270 s
21 | COCCNC(=O)Cc1c(C)n(Cc2ccccc2)c2nc(-c3ccccc3)nn2c1=O | 776 s
22 | Cc1ccccc1NC(=O)CN1C(=O)CC(c2ccccc2)S(=O)(=O)c2ccccc21 (configuration not stated) | 894 s

Row | SMILES | RP-LC retention time
23 | CCOc1ccc(S(=O)(=O)N2CCCC2c2nc(-c3ccc(Cl)cc3)no2)cc1 (configuration not stated) | 1230 s
24 | COc1ccc(OC)c(Nc2c(-c3ccccn3)nc3cnccn23)c1 | 744 s
25 | CC(C)NC(=O)C1CCN(C(=O)c2ncn3c2COC(c2ccc(Cl)cc2)C3)CC1 (configuration not stated) | 679 s
26 | Cc1c(C(=O)N2CCC(C)CC2)cnn1-c1cc(-c2nc(C(C)(C)C)no2)ccn1 | 1240 s
27 | N#CCn1cccc1-c1nc(-c2ccncc2)no1 | 685 s
28 | Cn1ncc2c3ccccc3n(CC(=O)NCCN3CCCCC3)c2c1=O | 595 s
29 | O=C1NCCCCCCN(C(=O)Nc2ccc(F)cc2)[C@H]2CCC[C@@H]12 | 780 s
30 | Cc1nc(-c2ccc(N3CCN(C(=O)c4cc5ccccc5[nH]4)CC3)nc2)sc1C | 924 s
31 | COC(=O)c1ccc(S(=O)(=O)N2CCN(S(=O)(=O)C3CC3)CC2)cc1 | 878 s
32 | CCc1nnc(-c2ccc3ccn(CC(=O)Nc4cc(F)ccc4F)c3c2)o1 | 879 s
33 | Cc1cc(=O)n(CC(=O)Nc2ccccc2)c(N2CCOCC2)n1 | 628 s
34 | O=C1[C@H]2CN(Cc3cccc(Cl)c3)C[C@H]2C(=O)N1CCN1CCc2ccccc2C1 | 659 s
35 | CCn1cc(-c2ccc(C)cc2)cc1C(=O)NCCOC | 919 s
36 | CC(C)Cn1c(=O)c(N2CCN(S(=O)(=O)c3cccc(F)c3)CC2)nc2ccncc21 | 636 s
37 | CCCn1c(=O)c(C)nc2cc(-c3noc(-c4ccc(OCC)cc4)n3)ccc21 | 1290 s
38 | CCN(CC)C(=O)c1cnc2nc(C)ccc2c1Nc1ccc(C(C)=O)cc1 | 589 s
39 | CCC(=O)Nc1ccc(CCc2nc3ccc(C(=O)NC(C)Cc4ccco4)cc3[nH]2)cc1 (configuration not stated) | 630 s
40 | O=C(Cc1cccn1-c1ccc(Cl)cc1)NCc1ccc(N2CCOCC2)cc1 | 886 s
41 | O=C(NCc1ccc2c(c1)OCO2)C1CCCN(C(=O)c2cc(-c3ccncc3)n[nH]2)C1 (configuration not stated) | 599 s
42 | CC(C)(C)n1nnnc1C1CC2(CCOCC2)C(=O)N1Cc1cccc(C(F)(F)F)c1 (configuration not stated) | 862 s
43 | CN(C1CCc2nn(C)c(=O)n2CC1)S(=O)(=O)c1cccc(C#N)c1 (configuration not stated) | 667 s
44 | CC(Nc1nc(N2CCCC2)nc2ccccc12)c1ccccc1 (configuration not stated) | 781 s

Row | SMILES | RP-LC retention time
45 | N#CCCN(CCC#N)c1ccc(/C=C2\N=C(c3cc([N+](=O)[O-])ccc3Cl)OC2=O)cc1 | 1010 s
46 | COc1cc(C(=O)Nc2nc3c(s2)Cc2c(Br)ccc(OC)c2-3)cc(OC)c1OC | 1170 s
47 | COC(=O)c1ccccc1Nc1c(-c2ccc(C)cc2)nc2cnc(Br)cn12 | 1190 s
48 | COc1cccc(NC(=O)C2CCCN(S(=O)(=O)c3c[nH]c(C(=O)N4CCCC4)c3)C2)c1 (configuration not stated) | 765 s
49 | O=C(c1cccs1)N1CCOc2ccc(N3CCCC3)cc2C1 | 825 s
50 | Cc1cccc(NC(=O)Cn2nc(N3CCCC(C)C3)c3ccccc3c2=O)c1C (configuration not stated) | 1120 s
51 | CCOC(=O)c1cc2n(n1)CC(C)(C(=O)NCc1ccc(C)cc1)N(C1CC1)C2=O (configuration not stated) | 786 s
52 | CC1=C(c2ccccc2)S(=O)(=O)N=C1N1CCCN(C(=O)NC(C)(C)C)CC1 | 790 s
53 | Cc1cc(N2CCOCC2)nc(N2CCN(C(=O)c3ccc(Br)cc3)CC2)n1 | 660 s
54 | COc1ccc(CNC(=O)N(Cc2ccsc2)C2CC2)cc1OC | 769 s
55 | CN(C)c1nn(CC(=O)Nc2ccc(Br)cc2)c(=O)c2ccccc12 | 932 s
56 | CC(C)OCCCNC(=O)Cn1c(=O)c2cccn2c2ccc(F)cc21 | 754 s
57 | Cc1ccc(N2C(=O)CN(S(C)(=O)=O)CC2(C)C(=O)NCc2ccc(Cl)cc2)c(C)c1 (configuration not stated) | 903 s
58 | O=C(C1=CN(c2ccc(F)cc2)c2cc(F)ccc2S1(=O)=O)N1CCOCC1 | 769 s
59 | COc1ccc(-c2nc3c(C)cccn3c2Nc2ccccc2C)cc1 | 755 s
60 | COc1ccc(-n2nc(C)c3sc(N(C)CC(=O)N4CCN(c5ccccn5)CC4)nc32)cc1 | 669 s
61 | COC(=O)C1=CN(C2CC2)c2cc(N3CCN(C4CCCCC4)CC3)c(F)cc2S1(=O)=O | 643 s
62 | COc1cccc(CNC(=O)CN2CCN(Cc3ccc(F)cc3Cl)C2=O)c1 | 844 s
63 | CCOc1ccc(C2Cn3nnc(-c4nc(-c5ccc(OC)cc5)no4)c3CO2)cc1 (configuration not stated) | 1160 s
64 | CC1=C(c2cccc(Cl)c2)S(=O)(=O)N=C1N1CCCN(C(=O)NCC(C)C)CC1 | 814 s
65 | CCc1ccc(CN2C(=O)C3(CCOCC3)CC2c2nnnn2C(C)(C)C)cc1 (configuration not stated) | 862 s
66 | O[C@@H]1CCCCC1N1CCC(c2ccccc2)CC1 (some centres not stated) | 702 s

Row | SMILES | RP-LC retention time
67 | Cc1ccc(C)c(Cn2nc3c(S(=O)(=O)N4CCN(c5ccc(F)cc5)CC4)cccn3c2=O)c1 | 1050 s
68 | C=CCN(CC=C)S(=O)(=O)c1ccc(C(=O)Nc2nnc(CSC)o2)cc1 | 764 s
69 | Cc1ccc(-c2ccc(=O)n(Cc3nc(-c4ccc(OC(C)C)cc4)no3)n2)cc1 | 597 s
70 | COc1ccc(NC(=O)C(C)C2CCN(C(=O)Nc3ccccc3)CC2)c(OC)c1 (configuration not stated) | 810 s
71 | COc1ccc(-c2noc(-c3ccc(=O)n(Cc4ccccn4)c3)n2)cc1OC | 743 s
72 | COc1ccc(S(=O)(=O)N2CCCC(C(=O)Nc3ccc(Cl)c(Cl)c3)C2)cc1C (configuration not stated) | 1180 s
73 | COc1cccc(-c2csc(-c3nnn(-c4ccc(C)c(C)c4)c3N)n2)c1 | 1170 s
74 | Cc1ccc(CC#N)c(-c2c(CC#N)ccc(C)c2C)c1C | 1170 s
75 | Cc1ccn2cc(C(=O)NCc3ccc(N(C)C)cc3)nc2c1 | 543 s
76 | COc1ccc(OC)c(S(=O)(=O)N2CCCN(C)c3ccccc32)c1 | 860 s
77 | Cc1cc(C(=O)N2CCC(c3noc(N)c3C(C)C)CC2)c(C)o1 | 759 s
78 | COc1cc2c(cc1OC)C(C(=O)NC1CCCCC1)C(c1cccnc1)N(C)C2=O (configuration not stated) | 994 s
79 | CCN1C(=O)COc2ccc(-c3noc(-c4cccc(Br)c4)n3)cc21 | 1280 s
80 | CN(C)S(=O)(=O)c1ccc(-c2nnc(C(=O)NCc3ccc(Br)cc3)o2)cc1 | 912 s
81 | CCOC(=O)c1nc(Nc2ccc(OCC(C)C)cc2)c2ccccc2n1 | 998 s
82 | CCOC(=O)COc1ccccc1C1CC(c2cccs2)=NN1C(=O)c1ccco1 (configuration not stated) | 941 s
83 | CCN(CC)S(=O)(=O)c1ccc2c(c1)CC(C(=O)NCCN1CCCCC1)N2C(C)=O (configuration not stated) | 610 s
84 | CC(=O)c1ccc2c(c1)[C@@H]1C=CC[C@@H]1[C@H](c1cc3c(cc1Br)OCO3)N2 | 1140 s
85 | Cc1ccc(NC(=O)Cn2nc3c(Oc4ccc(Cl)cc4)nccn3c2=O)cc1 | 864 s
86 | Cc1ccc(NC(=O)Cn2nc3c(Oc4cccc(F)c4)nccn3c2=O)cc1 | 880 s
87 | Cc1ccc(C)c(NC(=O)C2CCN(S(=O)(=O)c3cn(C(C)C)cn3)CC2)c1 | 767 s
